From patent US20050020576A1, “Kappa agonist compounds and pharmaceutical formulations thereof” (priority 1996, published 2005)
Values joined by “and” are separate entries in the source; they are usually repeats but may differ in a detail not shown here. Equal values may be shown once.

How the values were obtained:
[1] = system: formalin-induced flinching; test: animal or person; format: in vivo, male Sprague-Dawley rats; settings: rat, in vivo
[2] = target: T1, cloned human kappa receptor (Homo sapiens, UniProt P41145); test: biochemical; format: binding; settings: for Ki: nM 3H-Diprenorphin; for inhibition at 1 µM: read-out: 3H-Diprenorphin, % @ 1 uM
T1 sequence (P41145 whole entry): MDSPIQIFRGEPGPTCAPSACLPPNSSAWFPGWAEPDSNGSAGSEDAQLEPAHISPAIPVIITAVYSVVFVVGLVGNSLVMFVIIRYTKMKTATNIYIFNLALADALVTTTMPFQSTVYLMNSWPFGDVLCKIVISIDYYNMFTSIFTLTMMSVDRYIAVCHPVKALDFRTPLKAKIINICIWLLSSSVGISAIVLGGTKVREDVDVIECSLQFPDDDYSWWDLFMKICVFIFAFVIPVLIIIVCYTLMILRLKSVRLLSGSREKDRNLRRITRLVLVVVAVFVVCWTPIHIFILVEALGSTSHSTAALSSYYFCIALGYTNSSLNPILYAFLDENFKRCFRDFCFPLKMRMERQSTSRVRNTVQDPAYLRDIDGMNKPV

[3] = target: T1, cloned human kappa receptor; test: [3H]U69593 (agonist) binding to the cloned human kappa receptor; settings: Ki, nM 3H-U-69,593

Cl.O=C(Cc1ccc(Cl)c(Cl)c1)N1CCN(Cc2ccccc2)C[C@H]1CN1CCCC1 [(R-1), (R)-4-(Phenylmethyl)-1-[(3,4-dichlorophenyl)acetyl]-2-[(1-pyrrolidinyl)methyl]piperazine hydrochloride]
Late Phase Formalin, % @ 300; i.paw [1]: 53% @ 300
Ki [2]: 57 nM and 38 nM
melting point: 168 to 170 °C
Ki [3]: 9.3 nM

CS(=O)(=O)N1CCN(C(=O)Cc2ccc(Cl)c(Cl)c2)[C@H](CN2CCCC2)C1.Cl [(R-3a), (R)-4-Methanesulfonyl-1-[(3,4-dichlorophenyl)acetyl]-2-[(1-pyrrolidinyl)methyl]-piperazine hydrochloride]
Late Phase Formalin A50 (mg); i.paw [1]: 14 (5.6-29) mg
Ki [2]: 0.2 nM and 1.3 nM
melting point: 130 to 132 °C
Ki [3]: 0.19 nM and 0.5 nM

Cl.Cl.O=C(O)CN1CCN(C(=O)Cc2ccc(Cl)c(Cl)c2)[C@H](CN2CCCC2)C1 [(R-3c), (R)-4-[(3,4-dichlorophenyl)acetyl]-3-[(1-pyrrolidinyl)methyl]-1-piperazineacetic acid dihydrochloride]
Late Phase Formalin, % @ 300; i.paw [1]: 26% @ 300
inhibition at 1 µM [2]: 62%
melting point: 190 °C (dec.)
Ki [3]: 23 nM and 21 nM

CC(=O)N1CCN(C(=O)Cc2ccc(Cl)c(Cl)c2)[C@H](CN2CCCC2)C1.Cl [(R-3f), (R)-4-Acetyl-1-[(3,4-dichlorophenyl)acetyl]-2-[(1-pyrrolidinyl)methyl]-piperazine hydrochloride]
Late Phase Formalin, % @ 300; i.paw [1]: 95% @ 300
Ki [2]: 4.2 nM and 1.4 nM
melting point: 153 to 155 °C
Ki [3]: 0.11 nM and 0.14 nM

Cl.O=CN1CCN(C(=O)Cc2ccc(Cl)c(Cl)c2)[C@H](CN2CCCC2)C1 [(R-3j), (R)-4-[(3,4-Dichlorophenyl)acetyl]-3-[(1-pyrrolidinyl)methyl]-1-piperazinecarboxaldehyde hydrochloride]
Late Phase Formalin, % @ 300; i.paw [1]: 65% @ 300
inhibition at 1 µM [2]: 96%
melting point: 126 °C (dec.)
Ki [3]: 0.4 nM

O=C(Cc1ccc(C(F)(F)F)cc1)N1CCN(Cc2ccccc2)CC1CN1CCCC1 (centres unmarked) [(R.S-11)]
Late Phase Formalin, % @ 300; i.paw [1]: 92% @ 300
Ki [2]: 2.2 nM and 2.4 nM
Ki [3]: 0.39 nM and 0.57 nM

COC(=O)N1CCN(C(=O)Cc2ccc(Cl)c(Cl)c2)C(CN2CCCC2)C1 (centres unmarked) [GR 89696, reference compound]
Late Phase Formalin A50 (mg); i.paw [1]: 0.35(0.20-0.62) mg
Ki [2]: 0.095 nM and 0.1 nM
Ki [3]: 1.6 nM and 1.5 nM
